System: SD strain rats (pain threshold of right hind leg)
Experiment: Pain Removing Effect (Randall-Selitto method, heat edema)
Format: in vivo, rat
Conditions: 2 h after administration, mean ± standard error, n=10 rats
Protocol: Test substances and doses:
IPA and IBP were respectively suspended in a 0.5% aqueous solution of methylcellulose (MC) to a concentration of 8 mg/ml. The test suspensions for groups 2 and 3 were prepared by mixing the IPA suspension and IBP suspension together in a proportion of 3:1 (group 2) or 1:3 (group 3). The doses used are shown below. Each suspension was orally administered at a volumetric dose of 5 ml/kg.
Group 1: IPA 40 mg/kg+IBP 0 mg/kg
Group 2: IPA 30 mg/kg+IBP 10 mg/kg
Group 3: IPA 10 mg/kg+IBP 30 mg/kg
Group 4: IPA 0 mg/kg +IBP 40 mg/kg
Six-week-old male SD strain rats (Nippon SLC) fasted 24 hours before experiment were used in groups of 10. They were grouped such that the four groups were uniform in mean body weight.
First, the pain threshold value before thermal stimulation was measured (0 hour value). Then, heat edema was caused on the right hind leg of the rat by immersing said leg in hot water (54° C.) just to the fibular ankle (boundary showing sudden change in hair density) for 12 seconds. Two hours later, the pain threshold of the right hind leg was measured (2 hours value), immediately followed by test substance administration. After the lapse of two further hours, the pain threshold of the right hind leg was measured (4 hours value).
The percent pain removal was calculated by the following formula: [formula]

Cc1c(C(C)C)c(=O)n(-c2ccccc2)n1C [IPA, 4-isopropyl-2,3-dimethyl-1-phenyl-3-pyrazolin-5-one]
Pain removal (%) (IPA 40 mg/kg PO + IBP 0 mg/kg): 25.8 ± 15.9%

CC(C)Cc1ccc(C(C)C(=O)O)cc1 (centres unmarked) [IBP, 2-(4-isobutylphenyl)propionic acid]
Pain removal (%) (IPA 0 mg/kg + IBP 40 mg/kg PO): 32.3 ± 7.5%

From patent US5686109A, “Antipyretic analgesic composition” (priority 1993, dated 1997)
